Tests used:
CRP = molecular target: T1, CRP (Escherichia coli, UniProt P0ACJ8); test: EMSA in vitro DNA binding by CRP; type: biochemical, E. coli; conditions: 1.3 mM compound
T1 construct: made in house; host or cells: E. coli
From the text: (§1) All proteins for this study were expressed in E. coli. Untagged CRP was purified by Ni^2+-affinity chromatography as described. Lad protein was purified by ammonium sulfate precipitation and phosphocellulose column chromatography as described. RhaS-GB1^201b and GB1^b-RhaR were purified by Ni^2+-affinity chromatography. Briefly, plasmids derived from pET21 and expressing RhaS-GB1^201b and GB1^b-RhaR were transformed into competent cells of strains Acella™ (MoBiTec, Gottingen, Germany) or ArcticExpress(DE3) (Agilent Technologies, Santa Clara Calif.), respectively. The cells were grown in 1 liter TY plus ampicillin and rhamnose. Gentamycin was also added for GB1^b-RhaR. The cells were grown to OD600 of 0.5, transferred to a 15° C. shaker, 0.1 mM IPTG was added, and then incubated overnight. Cells were harvested by centrifugation and then resuspended in 30 mL of cold binding buffer (20 mM Tris, 500 mM NaCl, 5 mM imidazole, pH 7.9) plus L-rhamnose. […]
(§2) IRD700- and DY682-labeled oligos were from Eurofins MWG Operon. […] EMSA gels were imaged using an Odyssey infrared imager (LI-COR, Lincoln, Nebr.), and quantified using the Odyssey software, version 3.0.30. […] Inhibition values were calculated and graphs were drawn as for in vivo dose-response experiments.

LacI = molecular target: T2, LacI (Escherichia coli, UniProt P03023); test: EMSA in vitro DNA binding by LacI; type: biochemical, E. coli; conditions: highest concentrations (dilutions starting at 650 μM)
T2 construct: made in house; host or cells: E. coli
From the text: as §1, §2

ipaB = test: Shigella gene expression qRT-PCR, ipaB; type: cell-based, S. flexneri; conditions: for Average ΔΔCt / Ct / RQ (2^−ΔΔCt) / ΔΔCt^1 (normalized to gapA) / ΔΔCt^2 (normalized to rrsA): ipaB, example data
Method: Real-time quantitative reverse transcription PCR (qRT-PCR) was performed to test the effects of SE-1 on the expression of the VirF regulated genes virB, icsA, icsB and ipaB. The gapA and rrsA transcripts were used as internal controls. These are constitutively expressed Shigella genes commonly used to normalize mRNA levels. S. flexneri strain SME4331, which carries a null mutation in ipgD (ipgD), was grown at 30° C. overnight in TSB with ampicillin, diluted into the same medium to an OD600 of ˜0.1, and 1 ml aliquots further grown at 30° C. (DMSO only) or at 37° C. (SE-1 at 20 or 40 μM, or DMSO only, all 0.3% DMSO). Cells were grown to an OD600 of 1.0 (˜2.5 h) and RNA was isolated using an RNeasy MiniElute Cleanup Kit (Qiagen, Germantown, Md.), with DNA contamination eliminated using a Turbo DNase Kit (Ambion, Austin, Tex.). Complementary DNA (cDNA) was synthesized by random priming using a cDNA Reverse Transcription Kit (Applied Biosystems, Foster City, Calif.). Primers were tested for PCR specificity using genomic DNA template to ensure a single amplicon of the expected size for each primer pair, and validated using 5-fold dilutions of cDNA (2000 to 0.0256 ng) to ensure a linear plot of cycle threshold (Ct) versus cDNA concentration. Validated primer sets were used to test mRNA profiles in reactions that contained 10 ng of cDNA, 10 μl of SYBR green master mix (Applied Biosystems), specific primers (0.5 μM each) and water to a final volume of 20 μl, using a Step One Plus Real-Time PCR System (Applied Biosystems). The data was analyzed using the 2^−ΔΔCt method, and also by Applied Biosystems real-time analysis software. […] In brief, ΔΔCt values [ΔΔCt=(Ct,Target−Ct,Internal Control)SE-1−(Ct,Target−Ct,Internal Control)no SE-1] were separately obtained for each sample relative to two internal controls, gapA and rrsA. The ΔΔCt values relative to the two internal controls for each sample were averaged and then used to calculate the relative expression levels (2^−ΔΔCt). As a control, we also normalized each internal control to the other internal control. Control reactions used templates generated without reverse transcriptase to ensure low genomic DNA contamination. To ensure that products were not likely to be due to primer dimer artifacts, additional control samples were performed in which reaction mixtures contained primers alone (no template).

T2 sequence (P03023 whole entry): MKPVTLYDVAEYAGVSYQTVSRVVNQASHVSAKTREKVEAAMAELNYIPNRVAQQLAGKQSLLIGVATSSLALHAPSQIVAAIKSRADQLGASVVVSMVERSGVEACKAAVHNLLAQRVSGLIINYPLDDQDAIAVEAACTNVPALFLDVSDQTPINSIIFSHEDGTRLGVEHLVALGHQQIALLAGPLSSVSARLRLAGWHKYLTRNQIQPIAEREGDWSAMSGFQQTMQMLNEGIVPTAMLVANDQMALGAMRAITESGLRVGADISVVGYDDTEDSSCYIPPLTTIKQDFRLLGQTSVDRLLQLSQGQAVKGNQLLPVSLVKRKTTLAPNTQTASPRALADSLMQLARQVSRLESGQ
T1 sequence (P0ACJ8 2-210): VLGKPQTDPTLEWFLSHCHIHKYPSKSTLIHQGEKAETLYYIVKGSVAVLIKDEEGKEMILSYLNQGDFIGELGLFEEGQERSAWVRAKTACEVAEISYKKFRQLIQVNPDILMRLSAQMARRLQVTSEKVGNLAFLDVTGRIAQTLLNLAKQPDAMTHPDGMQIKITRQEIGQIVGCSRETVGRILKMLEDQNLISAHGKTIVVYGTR

## CCCCN1C=C(c2ccc3ccccc3n2)C(C[N+](=O)[O-])c2ccccc21 (stereo not shown) [Compound 1, 1-butyl-4-(nitromethyl)-3-quinolin-2-yl-4H-quinoline]
CRP
  CRP DNA binding retained: approximately 94%
LacI
  LacI DNA binding retained: approximately 70%
ipaB; 40 μM inhibitor, P<0.05
  reduction of ipaB expression: up to 4 fold
ipaB; SE-1 20 μM
  Average ΔΔCt: 1.11
  Ct: 25.57
  RQ (2^−ΔΔCt): 0.46
  ΔΔCt^1 (normalized to gapA): 0.62
  ΔΔCt^2 (normalized to rrsA): 1.61
ipaB; SE-1 40 μM
  Average ΔΔCt: 2.20
  Ct: 26.23
  RQ (2^−ΔΔCt): 0.22
  ΔΔCt^1 (normalized to gapA): 1.85
  ΔΔCt^2 (normalized to rrsA): 2.54

From patent US20140088144A1, “INHIBITING MICROBIAL INFECTIONS” (THE UNIVERSITY OF KANSAS, priority 2012, published 2014)
